Values of other authors in patent US9114107B2, “Compositions for inhibiting virus entry and promoting virolysis, and methods thereof” (priority 2010, dated 2015).

System: virus challenge
Details: cited from earlier work

SMILES: COc1ccnc2[nH]cc(C(=O)C(=O)N3CCN(C(=O)c4ccccc4)C[C@H]3C)c12 [BMS-806, (R)-1-(4-benzoyl-2-methylpiperazin-1-yl)-2-(4-methoxy-1H-pyrrolo[2,3-b]pyridin-3-yl)ethane-1,2-dione]
- local irritation or inflammation of macaque vagina (biopsy after multiple applications): No local irritation or inflammation was observed
- animals protected (macaques challenged with virus 2-6 hours after application): 3 of 5
